Laboratory results: patent US9802947B2, “3-oxo-tetrahydro-furo[3,2-b]pyrrol-4(5H)-yl) derivatives II” (GRÜNENTHAL GMBH, priority 2014, dated 2017)

What was measured:
Assay type in all cases: biochemical
[1] = target: recombinant human cathepsin K (hCatK) (Homo sapiens (Human), UniProt P43235); test: CatK functional enzyme assay (fluorogenic substrate Z-FR-AMC); details: for Ki: Ki calculated by Cheng Prusoff equation, pH 5.5; for Selectivity Ki(hCatS)/Ki(hCatK): ratio of Ki hCatS to Ki hCatK
Experimental: (§1) Reference and test compounds were assayed for inhibitory potency (IC50) against human cathepsins using the following assay setups:
(§2) Recombinant human cathepsins (CatS, CatK, CatL, CatB) were purchased from a Enzo Life Sciences. All assays were carried out in 96-well format using a buffer of 50 mM KH2PO4, 50 mM NaCl, 2 mM EDTA, 0.5 mM DTT and 1% Triton-X-100, pH 6.5 for Cathepsin S and a buffer of 50 mM NaOAc, 10 mM EDTA, 1 mM DTT and 0.01% Triton-X-100, pH 5.5 for CatK/L/B. For CatS, the enzyme (0.0007 mU/well) was incubated with fluorogeninc substrate (Z-VVR-AMC, 5 μM) at RT for 10 min. For CatK the enzyme (0.00175 mU/well) was incubated with fluorogeninc substrate (Z-FR-AMC, 40 μM) at RT for 10 min. For CatL, the enzyme (0.000874 mU/well) was incubated with fluorogeninc substrate (Z-VVR-AMC, 40 μM) at RT for 10 min. For CatB the enzyme was incubated with fluorogenic substrate (Z-VVR-AMC, 200 μM) at RT for 10 min. Flourogenic substrate turnover was detected using a microplate reader (Synergyl™ H4, BioTek). Ki values were calculated using the Cheng Prusoff equation (Cheng & Prosoff 1973).

[2] = target: recombinant human cathepsin S (hCatS) (Homo sapiens (Human), UniProt P25774); test: CatS functional enzyme assay (fluorogenic substrate Z-VVR-AMC); details: Ki calculated by Cheng Prusoff equation; pH 6.5
Experimental: as §1, §2

[3] = target: recombinant human cathepsin L (hCatL) (Homo sapiens (Human), UniProt P07711); test: CatL functional enzyme assay (fluorogenic substrate Z-VVR-AMC); details: pH 5.5
Experimental: as §1, §2

recombinant human cathepsin K (hCatK), sequence (P43235 115-329): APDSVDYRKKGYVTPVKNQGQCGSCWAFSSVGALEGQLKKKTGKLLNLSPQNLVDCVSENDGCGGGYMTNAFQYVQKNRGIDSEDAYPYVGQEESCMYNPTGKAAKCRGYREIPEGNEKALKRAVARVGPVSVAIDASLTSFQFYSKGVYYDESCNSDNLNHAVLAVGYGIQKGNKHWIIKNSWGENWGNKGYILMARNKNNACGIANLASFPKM
recombinant human cathepsin S (hCatS), sequence (P25774 115-331): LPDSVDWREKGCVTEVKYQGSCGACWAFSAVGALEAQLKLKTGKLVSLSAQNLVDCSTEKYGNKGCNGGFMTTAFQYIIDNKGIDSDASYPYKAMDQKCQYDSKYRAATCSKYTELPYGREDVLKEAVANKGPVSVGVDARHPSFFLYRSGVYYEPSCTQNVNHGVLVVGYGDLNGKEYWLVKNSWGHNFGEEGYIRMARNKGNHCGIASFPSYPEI
recombinant human cathepsin L (hCatL), sequence (P07711 114-333): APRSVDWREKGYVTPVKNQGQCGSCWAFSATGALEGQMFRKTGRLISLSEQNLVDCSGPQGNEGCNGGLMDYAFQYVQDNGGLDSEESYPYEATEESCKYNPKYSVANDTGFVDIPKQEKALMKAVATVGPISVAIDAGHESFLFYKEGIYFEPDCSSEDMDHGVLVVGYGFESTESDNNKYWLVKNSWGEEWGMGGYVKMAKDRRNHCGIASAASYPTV

| SMILES | Ki [1] [nM] | Selectivity Ki(hCatS)/Ki(hCatK) [1] | Ki [2] [nM] | inhibition at 31.6 µM [3] [%] |
| --- | --- | --- | --- | --- |
| O=C(N[C@H](C(=O)N1C[C@H](Cl)[C@H]2OCC(=O)[C@H]21)C1CCCC1)c1cccc(-c2cccnc2)c1 [Comparative Example C1, N—((S)-2-((3aS,6S,6aS)-6-chloro-3-oxotetrahydro-2H-furo[3,2-b]pyrrol-4(5H)-yl)-1-cyclopentyl-2-oxoethyl)-3-(pyridin-3-yl)benzamide, reference compound] | 14.8 | 6 | 82.4 |  |
| O=C(N[C@H](C(=O)N1C[C@H](Cl)[C@H]2OCC(=O)[C@H]21)C1CCCC1)c1ccc(-c2ccnnc2)s1 [Example 4, N—((S)-2-((3aS,6S,6aS)-6-chloro-3-oxotetrahydro-2H-furo[3,2-b]pyrrol-4(5H)-yl)-1-cyclopentyl-2-oxoethyl)-5-(pyridazin-4-yl)thiophene-2-carboxamide] | 1.8 | 22 | 39.8 | 73 |
| O=C(N[C@H](C(=O)N1C[C@H](Cl)[C@H]2OCC(=O)[C@H]21)C1CCCC1)c1ccc(-c2cnccn2)s1 [Example 5, N—((S)-2-((3aS,6S,6aS)-6-chloro-3-oxotetrahydro-2H-furo[3,2-b]pyrrol-4(5H)-yl)-1-cyclopentyl-2-oxoethyl)-5-(pyrazin-2-yl)thiophene-2-carboxamide] | 2.1 | 169 | 355 | 81 |
| O=C(N[C@H](C(=O)N1C[C@H](Cl)[C@H]2OCC(=O)[C@H]21)C1CCCC1)c1ccc(-c2cncc(F)c2)s1 [Example 6, N—((S)-2-((3aS,6S,6aS)-6-chloro-3-oxotetrahydro-2H-furo[3,2-b]pyrrol-4(5H)-yl)-1-cyclopentyl-2-oxoethyl)-5-(5-fluoropyridin-3-yl)thiophene-2-carboxamide] | 3.1 | 55 | 174 | 42 |
| O=C(N[C@H](C(=O)N1C[C@H](Cl)[C@H]2OCC(=O)[C@H]21)C1CCCC1)c1ccc(-c2ccncc2)s1 [Example 8, N—((S)-2-((3aS,6S,6aS)-6-chloro-3-oxotetrahydro-2H-furo[3,2-b]pyrrol-4(5H)-yl)-1-cyclopentyl-2-oxoethyl)-5-(pyridin-4-yl)thiophene-2-carboxamide] | 0.8 | 210 | 160 | 50 |

Continued, values first:

| Ki [1] [nM] | Selectivity Ki(hCatS)/Ki(hCatK) [1] | Ki [2] [nM] | inhibition at 31.6 µM [3] [%] | SMILES |
| --- | --- | --- | --- | --- |
| 1.5 | 99 | 151 | 72 | O=C(N[C@H](C(=O)N1C[C@H](Cl)[C@H]2OCC(=O)[C@H]21)C1CCCC1)c1ccc(-c2cccnn2)s1 [Example 1, N—((S)-2-((3aS,6S,6aS)-6-chloro-3-oxotetrahydro-2H-furo[3,2-b]pyrrol-4(5H)-yl)-1-cyclopentyl-2-oxoethyl)-5-(pyridazin-3-yl)thiophene-2-carboxamide] |
| 0.7 | 453 | 308 | 45 | O=C(N[C@H](C(=O)N1C[C@H](Cl)[C@H]2OCC(=O)[C@H]21)C1CCCC1)c1ccc(-c2cccnc2)s1 [Example 2, N—((S)-2-((3aS,6S,6aS)-6-chloro-3-oxotetrahydro-2H-furo[3,2-b]pyrrol-4(5H)-yl)-1-cyclopentyl-2-oxoethyl)-5-(pyridin-3-yl)thiophene-2-carboxamide] |
| 2.1 | 53 | 110 | 73 | O=C(N[C@H](C(=O)N1C[C@H](Cl)[C@H]2OCC(=O)[C@H]21)C1CCCC1)c1ccc(-c2cncnc2)s1 [Example 3, N—((S)-2-((3aS,6S,6aS)-6-chloro-3-oxotetrahydro-2H-furo[3,2-b]pyrrol-4(5H)-yl)-1-cyclopentyl-2-oxoethyl)-5-(pyrimidin-5-yl)thiophene-2-carboxamide] |
| 5.3 | 50 | 263 | 62 | O=C(N[C@H](C(=O)N1C[C@H](Cl)[C@H]2OCC(=O)[C@H]21)C1CCCC1)c1ncc(-c2cccnn2)s1 [Example 7, N—((S)-2-((3aS,6S,6aS)-6-chloro-3-oxotetrahydro-2H-furo[3,2-b]pyrrol-4(5H)-yl)-1-cyclopentyl-2-oxoethyl)-5-(pyridazin-3-yl)thiazole-2-carboxamide] |
